# Test results published in PubChem BioAssay (NCI).
#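 Exposure lasted 48 hours, with cells grown in 96-well plates and compounds tested at five concentrations. Definition used: TGI = concentration required for complete inhibition of growth.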
# Columns and labels:
# Assay in all cases: inhibition of tumour cell growth, NCI panel, 48 h
# NCI/ADR-RES ovarian = tested on: NCI/ADR-RES ovarian
# ACHN renal = tested on: ACHN renal
# HOP-62 NSCLC = tested on: HOP-62 NSCLC
# EKVX NSCLC = tested on: EKVX NSCLC
# MDA-MB-231 breast = tested on: MDA-MB-231 breast
# OVCAR-3 ovarian = tested on: OVCAR-3 ovarian
# OVCAR-5 ovarian = tested on: OVCAR-5 ovarian
# COLO 205 colon = tested on: COLO 205 colon
# CCRF-CEM leukemia = tested on: CCRF-CEM leukemia
# HCC-2998 colon = tested on: HCC-2998 colon
# NCI-H522 lung = tested on: NCI-H522 lung
# SN12C renal = tested on: SN12C renal
# SW-620 colon = tested on: SW-620 colon
# SNB-19 CNS = tested on: SNB-19 CNS
# SK-MEL-2 melanoma = tested on: SK-MEL-2 melanoma
# IGROV1 ovarian = tested on: IGROV1 ovarian
# K-562 leukemia = tested on: K-562 leukemia
# SF-295 CNS = tested on: SF-295 CNS
# T-47D breast = tested on: T-47D breast
# UACC-62 melanoma = tested on: UACC-62 melanoma
# NCI-H460 lung = tested on: NCI-H460 lung
# SR leukemia = tested on: SR leukemia
# SK-OV-3 ovarian = tested on: SK-OV-3 ovarian
# HOP-92 NSCLC = tested on: HOP-92 NSCLC
# A498 renal = tested on: A498 renal
# U251 CNS = tested on: U251 CNS
# SF-539 CNS = tested on: SF-539 CNS
# HT29 colon = tested on: HT29 colon
# HS 578T breast = tested on: HS 578T breast
# LOX IMVI melanoma = tested on: LOX IMVI melanoma
# 786-0 renal = tested on: 786-0 renal
# A549 NSCLC = tested on: A549 NSCLC
# KM12 colon = tested on: KM12 colon
# HL-60(TB) leukemia = tested on: HL-60(TB) leukemia
# OVCAR-4 ovarian = tested on: OVCAR-4 ovarian
# OVCAR-8 ovarian = tested on: OVCAR-8 ovarian
# MDA-N = tested on: MDA-N
# MCF7 breast = tested on: MCF7 breast
# SNB-75 CNS = tested on: SNB-75 CNS
# RXF 393 renal = tested on: RXF 393 renal
# M14 melanoma = tested on: M14 melanoma
# HCT-116 colon = tested on: HCT-116 colon
# UO-31 renal = tested on: UO-31 renal
# CAKI-1 renal = tested on: CAKI-1 renal
# SK-MEL-28 melanoma = tested on: SK-MEL-28 melanoma
# SF-268 CNS = tested on: SF-268 CNS
# HCT-15 colon = tested on: HCT-15 colon
# BT-549 breast = tested on: BT-549 breast
# PC-3 prostate = tested on: PC-3 prostate
# NCI-H23 lung = tested on: NCI-H23 lung
# UACC-257 melanoma = tested on: UACC-257 melanoma
# NCI-H226 lung = tested on: NCI-H226 lung
# TK-10 renal = tested on: TK-10 renal
# MALME-3M melanoma = tested on: MALME-3M melanoma
# DU-145 prostate = tested on: DU-145 prostate
# SK-MEL-5 melanoma = tested on: SK-MEL-5 melanoma
# RPMI-8226 leukemia = tested on: RPMI-8226 leukemia
# MDA-MB-435 = tested on: MDA-MB-435
# MOLT-4 leukemia = tested on: MOLT-4 leukemia
smiles,measurement,setting,value
C=CC/C(C(=O)OC)=C(/C(=O)OC)N(CCC)CCC,TGI,NCI/ADR-RES ovarian,> 100000 nM
same,TGI,ACHN renal,> 100000 nM
same,TGI,HOP-62 NSCLC,> 100000 nM
same,TGI,EKVX NSCLC,> 100000 nM
same,TGI,MDA-MB-231 breast,> 100000 nM
same,TGI,OVCAR-3 ovarian,> 100000 nM
same,TGI,OVCAR-5 ovarian,> 100000 nM
same,TGI,COLO 205 colon,> 100000 nM
same,TGI,CCRF-CEM leukemia,> 100000 nM
same,TGI,HCC-2998 colon,> 100000 nM
same,TGI,NCI-H522 lung,> 100000 nM
same,TGI,SN12C renal,> 100000 nM
same,TGI,SW-620 colon,> 100000 nM
same,TGI,SNB-19 CNS,> 100000 nM
same,TGI,SK-MEL-2 melanoma,> 100000 nM
same,TGI,IGROV1 ovarian,> 100000 nM
same,TGI,K-562 leukemia,> 100000 nM
same,TGI,SF-295 CNS,> 100000 nM
same,TGI,T-47D breast,> 100000 nM
same,TGI,UACC-62 melanoma,> 100000 nM
same,TGI,NCI-H460 lung,> 100000 nM
same,TGI,SR leukemia,55300 nM
same,TGI,SK-OV-3 ovarian,> 100000 nM
same,TGI,HOP-92 NSCLC,> 100000 nM
same,TGI,A498 renal,> 100000 nM
same,TGI,U251 CNS,> 100000 nM
same,TGI,SF-539 CNS,> 100000 nM
same,TGI,HT29 colon,> 100000 nM
same,TGI,HS 578T breast,> 100000 nM
same,TGI,LOX IMVI melanoma,> 100000 nM
same,TGI,786-0 renal,> 100000 nM
same,TGI,A549 NSCLC,> 100000 nM
same,TGI,KM12 colon,> 100000 nM
same,TGI,HL-60(TB) leukemia,64400 nM
same,TGI,OVCAR-4 ovarian,> 100000 nM
same,TGI,OVCAR-8 ovarian,> 100000 nM
same,TGI,MDA-N,> 100000 nM
same,TGI,MCF7 breast,> 100000 nM
same,TGI,SNB-75 CNS,> 100000 nM
same,TGI,RXF 393 renal,> 100000 nM
same,TGI,M14 melanoma,> 100000 nM
same,TGI,HCT-116 colon,> 100000 nM
same,TGI,UO-31 renal,> 100000 nM
same,TGI,CAKI-1 renal,> 100000 nM
same,TGI,SK-MEL-28 melanoma,> 100000 nM
same,TGI,SF-268 CNS,> 100000 nM
same,TGI,HCT-15 colon,> 100000 nM
same,TGI,BT-549 breast,> 100000 nM
same,TGI,PC-3 prostate,> 100000 nM
same,TGI,NCI-H23 lung,> 100000 nM
same,TGI,UACC-257 melanoma,> 100000 nM
same,TGI,NCI-H226 lung,> 100000 nM
same,TGI,TK-10 renal,> 100000 nM
same,TGI,MALME-3M melanoma,> 100000 nM
same,TGI,DU-145 prostate,> 100000 nM
same,TGI,SK-MEL-5 melanoma,> 100000 nM
same,TGI,RPMI-8226 leukemia,> 100000 nM
same,TGI,MDA-MB-435,> 100000 nM
same,TGI,MOLT-4 leukemia,> 100000 nM
CCC[C@H](C)[C@H]1NC(=O)[C@@H](NC(=O)[C@@H](CC(C)C)N(C)C(=O)C2CCCN2C(=O)[C@H](C)O)[C@@H](C)OC(=O)[C@H](CC(C)C)N(C)C(=O)[C@@H]2CCCN2C(=O)[C@H](CC(C)C)NC(=O)[C@@H](C)C(=O)[C@H](C(C)C)OC(=O)C[C@@H]1O (some centres not stated),TGI,NCI/ADR-RES ovarian,2620 nM
same,TGI,ACHN renal,68.9 nM
same,TGI,HOP-62 NSCLC,8.42 nM
same,TGI,EKVX NSCLC,339 nM
same,TGI,MDA-MB-231 breast,8.55 nM
same,TGI,OVCAR-3 ovarian,11.7 nM
same,TGI,OVCAR-5 ovarian,34.6 nM
same,TGI,COLO 205 colon,< 2.5 nM
same,TGI,CCRF-CEM leukemia,141 nM
same,TGI,HCC-2998 colon,5.51 nM
same,TGI,NCI-H522 lung,6.09 nM
same,TGI,SW-620 colon,5.24 nM
same,TGI,SNB-19 CNS,60 nM
same,TGI,SK-MEL-2 melanoma,4.68 nM
same,TGI,IGROV1 ovarian,25.6 nM
same,TGI,K-562 leukemia,3260 nM
same,TGI,SF-295 CNS,53.6 nM
same,TGI,T-47D breast,250 nM
same,TGI,UACC-62 melanoma,2.7 nM
same,TGI,NCI-H460 lung,28.9 nM
same,TGI,SR leukemia,42.2 nM
same,TGI,SK-OV-3 ovarian,140 nM
same,TGI,HOP-92 NSCLC,9.3 nM
same,TGI,A498 renal,37.6 nM
same,TGI,U251 CNS,< 2.5 nM
same,TGI,SF-539 CNS,10.2 nM
same,TGI,HT29 colon,10.2 nM
same,TGI,HS 578T breast,1040 nM
same,TGI,LOX IMVI melanoma,3.09 nM
same,TGI,786-0 renal,15.7 nM
same,TGI,A549 NSCLC,131 nM
same,TGI,KM12 colon,1270 nM
same,TGI,HL-60(TB) leukemia,108 nM
same,TGI,OVCAR-4 ovarian,11.7 nM
same,TGI,OVCAR-8 ovarian,48.4 nM
same,TGI,MDA-N,20.5 nM
same,TGI,MCF7 breast,250 nM
same,TGI,SNB-75 CNS,24.6 nM
same,TGI,RXF 393 renal,16 nM
same,TGI,M14 melanoma,84.8 nM
same,TGI,HCT-116 colon,3.56 nM
same,TGI,UO-31 renal,128 nM
same,TGI,CAKI-1 renal,1540 nM
same,TGI,SK-MEL-28 melanoma,< 2.5 nM
same,TGI,SF-268 CNS,30.3 nM
same,TGI,HCT-15 colon,1440 nM
same,TGI,BT-549 breast,25 nM
same,TGI,PC-3 prostate,16.9 nM
same,TGI,NCI-H23 lung,4.47 nM
same,TGI,UACC-257 melanoma,20.5 nM
same,TGI,NCI-H226 lung,62.2 nM
same,TGI,TK-10 renal,94.6 nM
same,TGI,MALME-3M melanoma,< 2.5 nM
same,TGI,DU-145 prostate,14.3 nM
same,TGI,SK-MEL-5 melanoma,3.81 nM
same,TGI,RPMI-8226 leukemia,76.8 nM
same,TGI,MDA-MB-435,5.19 nM
same,TGI,MOLT-4 leukemia,1580 nM
